Experimental data taken from US10947207B2, “GP130 modulators” (THE REGENTS OF THE UNIVERSITY OF CALIFORNIA, priority 2016, dated 2021).
Where “and” joins values, the source holds several entries; their conditions need not be identical. Identical values can stand only once. Entries after “also recorded” stand apart in the source; their conditions may differ. Like-named read-outs stand apart in the source and are kept apart here.

Legend:
human chondrocytes = details: cited from earlier work
[1] = system: pTyr-STAT3 in SH-SY5Y cells; assay: pSTAT3 AlphaLISA in SH-SY5Y cells; assay type: cell-based, human; details: 30 minutes, 1 μM
Experimental: Accordingly, the human neuroblastoma cell line SH-SY5Y was used, known to express the IL-6 receptor, […] to determine JAK-STAT activation as reflected by increases in pSTAT3. In the studies set forth in FIG. 2, cells were treated for 30 minutes with potential agonists PA1, PA2, and PA3; and then lysates were analyzed using the Sure-Fire Perkin-Elmer AlphaLISA for pTyr-STAT3.

[2] = system: NMDA-treated primary hippocampal neurons; assay: NMDA-triggered LDH release in primary hippocampal neuron culture; details: for effect on NMDA-triggered LDH release (in words): 10 μM, 16 h pretreatment, NMDA 100 μM, 2.5 h, compared with NMDA alone; for effect of SC144 on the protection by compounds 2 or 8 against NMDA-evoked excitotoxicity (LDH): SC144 pretreatment/co-treatment with compound 2 or 8
Text: In this study, the cytotoxicity of NMDA was quantified by measuring the activity of lactate dehydrogenase (LDH) released from the cultured neurons into the medium and confirmed by living cell density analysis using calcein staining. […] MK-801, a noncompetitive antagonist of NMDA receptor, was used as a control [Wong et al., 1986, Proc. Natl. Acad. Sci. U.S.A., 83(18):7104].
(§1) In the present study, primary cultures of hippocampal neurons from E15-16 mouse embryos (C57BL/6) were used. The culture was made according to a previously described protocol with minor modifications [Bilousova et al. 2006, J. Neurochem. 97(1):44]. Hippocampi were isolated in ice-cold D-Hanks buffer containing (in mM: NaCl 136.7, KCl 5.4, NaHCO3 4.2, KH2PO4 0.4, NaH2PO4 0.6, glucose 5.6, and pH 7.4). In order to achieve a single cell suspension, hippocampal tissues were treated with papain (0.5 μg/mL) and Dnase (0.6 μg/mL) for 20 min at 37° C., followed by mechanical dissociation in complete media (Neurobasal medium supplemented with B27 (Invitrogen), 25 μM glutamate, and 1% penicillin-streptomycin). The cells were plated on poly-DL-ornithine (0.5 mg/mL), and laminin (5 μg/mL) pre-coated 96-well plates (Costar) at density 1×10^5 cells/mL and maintained in a humidified 5% CO2 incubator at 37° C. The proliferations of non-neuronal cells were limited by 48 h treatment with cytosine arabinoside (10 μM) started on first day in vitro (DIV1). All experiments were performed at 9 DIV cells.
Hippocampal neurons isolated from embryos were cultured for 8 days before treatment with chemical modulators (compounds). […] Briefly, the cells were washed three times with prewarmed Locke's buffer containing (in mM: NaCl 154, KCl 5.6, NaHCO3 3.6, CaCl2 2.3, MgCl2 1.2, glucose 5.6, HEPES 5, and pH 7.4) to remove traces of growth medium. […] The incubation was terminated by removal of compound-containing buffer, followed by washing with prewarmed drug-free Locke's buffer containing 1 mM Mg^2+.
Assessment of cell damage was done by measuring the LDH activity in the culture medium. The experiment was performed per the manufacturer's protocol (Promega). Release LDH levels were expressed as a percentage compared with that of the DMSO control group (100%).

[3] = system: NMDA-treated hippocampal neurons; assay: Calcein staining, density of living neurons under NMDA-induced excitotoxicity; assay type: cell-based, mouse; details: 10 μM pretreatment, NMDA 100 μM, 2.5 h
Text: Calcein staining was employed to evaluate the density of living neurons. A highly lipophilic non-fluorescent and cell permeable compound, calcein-acetoxymethyl ester (calcein-AM) was used for staining. Calcein-AM can be converted by intracellular esterases into calcein, an anionic fluorescent form, only labeling viable cells, and thus provides both morphological and functional information about undamaged cells.
as §1
Hippocampal neurons isolated from embryos were cultured for 8 days before treatment with chemical modulators (compounds). […]
A highly lipophilic non-fluorescent and cell permeable compound, calcein-acetoxymethyl ester (calcein-AM) was used to determine cell viability. […] Fluorescent images of live cells were collected using Lionheart FX automated digital microscope equipped with 4× objective and GFP filter cube (469/525); data was processed and analyzed using Gen5 software v. […]

[4] = Pharmacokinetic study, brain and plasma levels in mice; assay type: in vivo, mouse; details: for Cmax: mouse, brain
Experimental: Since any potential therapeutic for AD needs to cross the blood-brain barrier (BBB), we further evaluated the brain permeability of Gp130 compound 2 in mice. Mice were dosed orally at 10 or 30 mg/kg, or injected subcutaneously (SQ) at 10 mg/kg, and euthanized after 1, 2, 4, 6, and 8 hours post-dose. […] The brain to plasma ratio for compound 2 was ˜4:1 for oral 30 mg/kg; and […] for 10 mg/kg SQ injection. Based on the oral brain levels of compound 2 we will conduct proof-of-concept testing in a mouse model of NMDA-induced toxicity in future studies.
The brain penetrance and plasma levels of compound 2 were assessed in a pharmacokinetic (PK) study comprising oral dosing (30 mg/kg and 10 mg/kg) and subcutaneous (sub-Q, 10 mkd) injection. For each route and dose, 5 adult wildtype mice received either 5 μL of a 50 mg/ml stock in 100% DMSO mixed 50:50 with flavoring to give 10 μL total for 10 mg/kg oral; or 10 μL of a 75 mg/ml stock in 100% DMSO mixed 50:50 with flavoring to give 20 μL final for 30 mg/kg oral; or were injected with 50 μL of a 5 mg/ml stock in 100% DMSO for sub-Q 10 mg/kg, Mice were euthanized by ketamine/xylazine over-anesthesia at 1, 2, 4, 6, and 8 h post-dosing, and blood collected by cardiac puncture. The mice were then perfused with saline and brain tissue dissected and snap frozen on dry ice. Blood was centrifuged at 3000 rpm for 10 min and the plasma supernatant was collected. Both plasma and the right hemi-brain were sent to Integrated Analytical Solutions (IAS, Berkeley, Calif.) with a reference sample of compound for compound level analysis in tissue and plasma. The compound levels were determined using a LC-MS/MS approach.

## Brc1ccc(Nc2nc(-c3ccccc3)cs2)cc1 [Compound 1, N-(4-bromophenyl)-4-phenylthiazol-2-amine]
Human chondrocytes
  apoptosis of human chondrocytes: reduce apoptosis of human chondrocytes
  pSTAT3: increase pSTAT3

## Fc1ccc(Nc2nc(-c3ccccc3)cs2)cc1 [Compound 2, N-(4-fluorophenyl)-4-phenylthiazol-2-amine]
[1]
  pSTAT3 levels over DMSO control: increased pSTAT3
[2]
  effect on NMDA-triggered LDH release (in words): greatest decrease
[2]; listed as compound 2
  effect on NMDA-triggered LDH release (in words): rescued the LDH increase
[3]
  density of living neurons (calcein staining): significance
[3]; listed as compound 2
  density of living neurons (calcein staining): no difference in density of living neurons
[4]
  oral brain permeability (in words): good oral brain permeability
[4]; dose of 30 mg/kg
  oral bioavailability (in words): orally bioavailable
[4]; po, 10 mg/kg, oral 10 mg/kg, at 1 h, read-out: Cmax for brain
  Cmax: ~18 ng/g
[4]; po, 30 mg/kg, oral 30 mg/kg, at 1 h post dose, read-out: Cmax for brain
  Cmax: ~570 nM and 156 ng/g
[4]; po, 30 mg/kg, oral 30 mg/kg, read-out: Cmax
  Cmax: 570 nM
[4]; subcutaneous, 10 mg/kg, SQ 10 mg/kg, at 2 h, read-out: Cmax for brain
  Cmax: 161 ng/g

## Brc1ccc(Nc2nc(-c3cccnc3)cs2)cc1 [Compound 4, N-(4-bromophenyl)-4-(pyridin-3-yl)thiazol-2-amine]
[2]
  effect on NMDA-triggered LDH release (in words): greatest decrease

## Fc1ccc(Nc2nc(-c3ccccc3)cs2)c(F)c1 [Compound 5, N-(2,4-difluorophenyl)-4-phenylthiazol-2-amine]
[2]
  effect on NMDA-triggered LDH release (in words): greatest decrease

## Fc1ccc(Nc2nc(-c3ccc(F)cc3)cs2)cc1 [Compound 8, N,4-bis(4-fluorophenyl)thiazol-2-amine]
[2]
  effect on NMDA-triggered LDH release (in words): rescued LDH; also recorded: greatest decrease

## C[C@]12N[C@H](Cc3ccccc31)c1ccccc12 [MK801, reference compound]
[2]
  effect on NMDA-triggered LDH release (in words): rescued the LDH increase
[3]
  density of living neurons (calcein staining): significance

## O=C(NNc1nc2cc(F)ccc2n2cccc12)c1cnccn1 [SC144]
[2]
  effect of SC144 on the protection by compounds 2 or 8 against NMDA-evoked excitotoxicity (LDH): prevented compound 2 rescue; also recorded: prevented this rescue
[2]; listed as SC-144
  effect of SC144 on the protection by compounds 2 or 8 against NMDA-evoked excitotoxicity (LDH): abated the protection

## Brc1ccc(Nc2nc(-c3ccccc3)cs2)cc1 [compound 1 (PA1)]
Human chondrocytes; Shkhyan et al. submitted manuscript
  Gp130 agonism: Gp130 agonist

## HN: 24-amino acid bioactive peptide encoded in the mitochondrial genome by the gene MT-RNR2
[2]
  effect on NMDA-triggered LDH release (in words): non-significance; also recorded: only one of them was active
[2]; no NMDA
  effect on neurons which were not treated with NMDA: Neither HN itself nor the compounds had effect

## HNG: potent HN analog, HN with a substitution of serine 14 to glycine (MAPRGFSCLLLLTGEIDLPVKRRA; UniProt Q8IVG9 1-24, looked up, variant S14G)
[2]
  effect on NMDA-triggered LDH release (in words): significance
